# Laboratory results from ChEMBL document CHEMBL1143114, “Preparation and affinity profile of novel nicotinic ligands” (Bioorg Med Chem Lett, 2008).
# Activity calls are given as the source filed them. The rule behind the calls is not given here.
# Assays:
# [1] = target: Muscarinic acetylcholine receptor; experiment: Displacement of [3H]oxotremorine from muscarinic receptor in rat brain; assay type: tissue-based
# [2] = target: Neuronal acetylcholine receptor; alpha4/beta2 (Rattus norvegicus, UniProt P09483+P12390); experiment: Displacement of [3H]cystisine from nicotinic alpha-4-beta-2 receptor in rat brain; assay type: tissue-based
# Sequence of Neuronal acetylcholine receptor; alpha4/beta2 (P09483 whole entry): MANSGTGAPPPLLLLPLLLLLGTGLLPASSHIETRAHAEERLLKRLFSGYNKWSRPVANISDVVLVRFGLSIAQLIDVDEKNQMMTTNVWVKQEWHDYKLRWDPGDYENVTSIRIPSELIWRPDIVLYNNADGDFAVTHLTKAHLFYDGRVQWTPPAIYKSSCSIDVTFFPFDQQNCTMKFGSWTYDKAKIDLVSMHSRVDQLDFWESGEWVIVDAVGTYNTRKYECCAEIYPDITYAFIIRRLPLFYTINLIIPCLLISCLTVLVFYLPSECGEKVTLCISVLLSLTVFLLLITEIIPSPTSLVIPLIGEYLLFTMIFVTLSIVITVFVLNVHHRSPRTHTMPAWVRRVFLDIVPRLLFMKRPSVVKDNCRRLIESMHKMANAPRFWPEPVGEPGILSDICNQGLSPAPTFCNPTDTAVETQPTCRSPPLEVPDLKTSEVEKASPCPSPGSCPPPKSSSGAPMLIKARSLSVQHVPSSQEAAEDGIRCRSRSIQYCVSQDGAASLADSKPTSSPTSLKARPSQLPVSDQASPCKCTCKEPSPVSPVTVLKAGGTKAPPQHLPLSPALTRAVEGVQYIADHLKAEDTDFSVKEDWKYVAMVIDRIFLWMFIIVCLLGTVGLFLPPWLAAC
# Sequence of Neuronal acetylcholine receptor; alpha4/beta2 (P12390 whole entry): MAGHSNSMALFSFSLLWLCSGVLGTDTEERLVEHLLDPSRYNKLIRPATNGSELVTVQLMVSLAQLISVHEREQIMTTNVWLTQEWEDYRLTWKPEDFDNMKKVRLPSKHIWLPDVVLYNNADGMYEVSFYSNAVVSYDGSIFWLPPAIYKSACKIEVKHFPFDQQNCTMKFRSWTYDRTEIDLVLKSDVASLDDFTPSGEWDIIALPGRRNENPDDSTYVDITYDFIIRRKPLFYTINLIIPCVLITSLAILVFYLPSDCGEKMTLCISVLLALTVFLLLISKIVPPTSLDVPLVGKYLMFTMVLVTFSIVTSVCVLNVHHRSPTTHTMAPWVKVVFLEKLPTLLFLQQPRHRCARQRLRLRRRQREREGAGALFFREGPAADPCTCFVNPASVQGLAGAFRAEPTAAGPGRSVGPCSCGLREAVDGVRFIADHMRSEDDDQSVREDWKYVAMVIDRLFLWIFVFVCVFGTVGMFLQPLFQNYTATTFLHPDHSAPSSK
# [3] = target: Neuronal acetylcholine receptor subunit alpha-7 (Rattus norvegicus, UniProt Q05941); experiment: Displacement of [3H]alpha-bungaro-toxine from nicotinic alpha-7 receptor in rat brain; assay type: tissue-based
# Sequence of Neuronal acetylcholine receptor subunit alpha-7 (Q05941 whole entry): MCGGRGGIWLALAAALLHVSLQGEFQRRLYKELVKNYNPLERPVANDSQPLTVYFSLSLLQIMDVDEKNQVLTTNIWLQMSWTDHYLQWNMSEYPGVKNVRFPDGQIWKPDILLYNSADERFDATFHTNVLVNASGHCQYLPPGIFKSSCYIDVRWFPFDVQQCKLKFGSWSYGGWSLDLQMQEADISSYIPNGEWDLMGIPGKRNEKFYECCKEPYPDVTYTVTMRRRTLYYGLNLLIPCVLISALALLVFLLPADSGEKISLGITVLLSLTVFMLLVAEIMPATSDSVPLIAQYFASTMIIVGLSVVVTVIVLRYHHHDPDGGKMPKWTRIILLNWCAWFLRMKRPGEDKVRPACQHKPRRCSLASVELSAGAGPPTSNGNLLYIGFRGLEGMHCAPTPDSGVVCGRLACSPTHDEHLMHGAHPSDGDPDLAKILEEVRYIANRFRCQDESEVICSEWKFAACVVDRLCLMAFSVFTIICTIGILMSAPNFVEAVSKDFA
# [4] = species: Rattus norvegicus; experiment: Increase in cortical acetyl choline levels in rat by microdialysis; assay type: functional, organism-based
# [5] = species: Rattus norvegicus; experiment: Effect on memory in Wistar rat by social recognition test; assay type: functional, organism-based
SMILES,Ki [1] [µM],Ki [2] [µM],Ki [3] [µM],Activity [4],Activity [5]
CN(C)C1(COc2cccnc2)CC1.Cl,> 10,0.095,> 10,,
CN(C)C1(COc2ccc(Cl)nc2)CC1,,0.304,,,
CNC1(/C=C/COc2cccnc2)CC1.Cl,> 10,1.1,> 10,,
C#Cc1cncc(OCC2(NC)CC2)c1.Cl,> 10,0.00656,> 10,,
Cl.NC1(COc2cccnc2)CC1,> 10,0.034,> 10,,
CCNC1(COc2cccnc2)CC1,> 10,1.01,> 10,,
CNC1(COc2cnc(Cl)c(Br)c2)CC1.Cl,> 10,0.00537,> 10,,
CNC1(/C=C\COc2cccnc2)CC1.Cl,> 10,2.28,> 10,,
CNC1(COc2cccnc2)CC1.Cl,> 10,0.003,> 10,Dose-dependent effect,Active
Cc1ccc(OCC2(N(C)C)CC2)cn1,,1.09,,,
CNC1(/C=C/c2cccnc2)CC1.O=C(O)/C=C/C(=O)O,> 10,1.16,3.46,,
CNC1(CCOc2cccnc2)CC1.O=C(O)/C=C/C(=O)O,> 10,0.109,> 10,,
CNC1(COc2ccc(Cl)nc2)CC1.Cl,> 10,0.013,> 10,,
c1cncc(OCC2(N3CCCC3)CC2)c1,> 10,1.61,> 10,,
CN(C)C1(COc2ccc(Br)nc2)CC1,,0.394,,,
CNC1(CCCOc2cccnc2)CC1.O=C(O)/C=C/C(=O)O,> 10,2.46,> 10,,
CN(C)C1(COc2cnc(Cl)c(Br)c2)CC1,,0.11,,,
CN(C)C1(COc2cncc(Br)c2)CC1,,0.273,,,
CNC1(COc2cncc(Br)c2)CC1.Cl,> 10,0.00107,> 10,,
CNC1(COc2ccc(C)nc2)CC1.Cl,> 10,0.04,> 10,,
C=Cc1cncc(OCC2(NC)CC2)c1.Cl,> 10,0.0701,> 10,,
CNC1(COc2ccc(Br)nc2)CC1.Cl,> 10,0.0388,> 10,,
NC1(COc2ccc(Cl)nc2)CC1,,0.098,,,
Cc1ccc(OCC2(N)CC2)cn1,,0.266,,,
CNC1(CCc2cccnc2)CC1.Cl,> 10,0.251,1.91,,
